{
  "source": "patent US10107798B2",
  "about": "“Methods of chemotype evolution” (SUNESIS PHARMACEUTICALS, INC., priority 2008, dated 2018)",
  "key": {"[1]": {"target": "T1, Humanized mouse Aurora A (amino acids 107-403) (Mus musculus, UniProt P97477)", "T1 sequence (P97477 1-395 N164G/K218R/M280L)": "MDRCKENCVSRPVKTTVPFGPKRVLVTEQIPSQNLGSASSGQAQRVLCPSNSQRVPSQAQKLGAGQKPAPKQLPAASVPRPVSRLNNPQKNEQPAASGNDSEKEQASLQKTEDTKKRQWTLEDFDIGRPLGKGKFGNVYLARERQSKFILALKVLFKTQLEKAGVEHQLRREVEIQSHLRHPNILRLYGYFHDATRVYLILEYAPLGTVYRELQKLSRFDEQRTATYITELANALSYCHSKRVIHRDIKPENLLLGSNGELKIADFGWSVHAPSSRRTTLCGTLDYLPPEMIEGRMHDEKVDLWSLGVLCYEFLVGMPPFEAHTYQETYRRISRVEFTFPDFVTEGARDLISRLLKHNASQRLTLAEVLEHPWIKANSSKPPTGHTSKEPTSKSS", "assay": "Aurora A kinase assay (IMAP fluorescence polarization, FAM-PKAtide, 10 μM ATP)", "assay_type": "biochemical", "protocol": "Aurora A Kinase Assay: Humanized mouse Aurora A (amino acids 107-403) was expressed in E. coli as described herein. […] The kinase reaction was initiated by adding Aurora A at a final concentration of 0.3 nM and incubated at 21° C. for 30 min. As a positive control for enzyme activity, the reaction mixture was added to DMSO and as a negative control for enzyme activity, the reaction mixture was added to Compound 1 at a final concentration of 5 μM. Both control reactions were conducted in triplicate. To detect phosphorylated PKAtide, the kinase reaction was combined with Progressive Binding Solution (1:400 Progressive Binding Reagent, 1× Buffer A, Molecular Devices) in a 1:3 ratio. The mixture was incubated for 30 min at 25° C. and the plate was scanned on an Analyst AD with excitation at 485 nm and emission at 530 nm. The fluorescence polarization value “P” is defined by equation (1) below, where “Fpar” is the fluorescence intensity parallel to the excitation plane and “Fperp” is the fluorescence intensity perpendicular to the excitation plane. The value “mP” was generated by multiplying the P value for each reaction well by a factor of 1000. The percent relative enzymatic activity (“Y” values) was calculated by normalizing the mP value for each well to the average positive control. Relative enzymatic activity values were plotted as a function of the logarithm of compound concentration (“x”) and […] values were generated in GraphPad Prism software version 4.01 using Equation (2), where “x” is the logarithm of compound concentration and “Top”, “Bottom” and “HillSlope” are curve parameters calculated by the software. IC50 values were calculated as the concentration of compound at which enzymatic activity is 50%.\nFragment Library Pilot Screen. Fragment molecule plates were screened in 96-well plates at 5 μM in single-point format in the Aurora A Kinase assay as described above. All reaction mixtures resulting in greater than or equal to 50% inhibition of enzymatic activity were then tested in an IC50 assay. Original screening samples were used for follow-up IC50 experiments. LC/MS analysis was conducted on fragment assembly screening plates to confirm presence of desired test ligand in the reaction mixture. Confirmed hits were then resynthesized as purified thioether compounds and tested in an IC50 assay."}, "[2]": {"target": "T2, Aurora A (Homo sapiens, UniProt O14965)", "T2 sequence (O14965 1-403)": "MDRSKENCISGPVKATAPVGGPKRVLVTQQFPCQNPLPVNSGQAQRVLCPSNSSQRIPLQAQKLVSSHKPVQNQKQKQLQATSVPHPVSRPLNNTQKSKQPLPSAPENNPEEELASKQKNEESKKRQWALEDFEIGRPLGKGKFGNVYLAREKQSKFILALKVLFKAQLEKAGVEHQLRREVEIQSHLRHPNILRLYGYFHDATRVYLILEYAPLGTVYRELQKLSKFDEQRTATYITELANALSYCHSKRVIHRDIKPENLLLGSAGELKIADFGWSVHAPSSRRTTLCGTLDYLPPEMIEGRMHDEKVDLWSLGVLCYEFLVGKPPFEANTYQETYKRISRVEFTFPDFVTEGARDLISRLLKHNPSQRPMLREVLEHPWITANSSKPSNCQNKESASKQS", "assay": "Aurora A activity in cell based assays", "details": "inhibition of Aurora A activity in cell based assays"}, "[3]": {"target": "T3, ALK (Invitrogen PV3867) (Homo sapiens, UniProt Q9UM73)", "T3 construct": "purchased Invitrogen PV3867", "T3 sequence (Q9UM73 1058-1620 limits assumed)": "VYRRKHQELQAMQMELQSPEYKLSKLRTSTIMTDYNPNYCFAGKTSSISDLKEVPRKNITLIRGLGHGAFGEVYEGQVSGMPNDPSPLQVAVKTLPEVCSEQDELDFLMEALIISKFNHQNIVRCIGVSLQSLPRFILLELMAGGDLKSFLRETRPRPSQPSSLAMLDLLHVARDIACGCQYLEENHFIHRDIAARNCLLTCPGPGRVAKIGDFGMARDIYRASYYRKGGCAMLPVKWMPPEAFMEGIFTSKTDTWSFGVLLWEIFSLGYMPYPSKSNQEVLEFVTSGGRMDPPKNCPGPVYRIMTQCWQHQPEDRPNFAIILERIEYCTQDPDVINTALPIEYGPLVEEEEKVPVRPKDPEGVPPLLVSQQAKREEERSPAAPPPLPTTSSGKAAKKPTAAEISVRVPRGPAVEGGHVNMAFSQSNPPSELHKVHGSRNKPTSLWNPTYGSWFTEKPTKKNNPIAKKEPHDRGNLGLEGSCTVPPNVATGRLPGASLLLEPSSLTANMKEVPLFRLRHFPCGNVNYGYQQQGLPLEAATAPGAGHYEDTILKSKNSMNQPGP", "assay": "ALK kinase assay (LanthaScreen time-resolved FRET, 10 μM ATP)", "assay_type": "biochemical", "protocol": "ALK kinase assays were conducted using the LanthaScreen® time-resolved FRET assay format (Invitrogen, Carlsbad Calif.). Assay conditions consisted of 15 pM (picomolar) ALK (Invitrogen PV3867), 10 μM ATP, and 100 nM substrate peptide FL-polyGT (Invitrogen PV3610) diluted in assay buffer (10 mM Tris pH 7.2, 10 mM MgCl, 1 mM DTT, 100 μM Na2OVO4. 0.01% Triton® X-100, 0.05% Casein). Control compounds and fragment-assembly reaction mixtures were diluted in DMSO to generate stock compounds at 20-fold final concentration. For IC50 assays, fragment-assembly reaction mixtures were titrated three-fold in DMSO and diluted 20-fold into the assay mixture. As a positive control for enzyme activity, the reaction mixture was added to DMSO, and, as a negative control for enzyme activity, the reaction mixture was added to staurosporine (Sigma) at a final concentration of 20 μM.\nFragment Library Pilot Screen. Fragment-assembly reaction mixtures were screened in 384-well plates at a concentration approximating 5-fold lower than that of the purine-mimetic bait fragment IC50 value, in single-point format in the ALK assay as described above. Reaction mixtures resulting in greater than or equal to 50% inhibition of enzymatic activity were then confirmed in single-point format, or tested in an IC50 assay. LC/MS analysis was conducted on fragment assembly screening plates to confirm the presence of desired test ligand in the reaction mixture."}, "[4]": {"details": "Table 5, bait, fragment and disulfide-assembled molecules, relative to concentration of fragment molecule, read-out: IC50"}, "[5]": {"details": "Table 4, purified resynthesized molecule, read-out: Resynthesized Hit/Analog IC50"}, "[6]": {"details": "Table 7, hit fragment alone, no bait, read-out: Fragment IC50"}, "[7]": {"details": "Table 1, disulfide chemistry: bait, fragments, unpurified reaction mixtures and purified ligand, relative to concentration of fragment molecule, read-out: IC50"}, "[8]": {"details": "Table 2, thioether chemistry: bait, test fragment, unpurified reaction mixtures and purified ligand, relative to concentration of fragment molecule, read-out: IC50"}},
  "note": "Where “and” joins values, the source holds several entries; their conditions need not be identical. Equal entries are not always repeated. Where two headings read alike, the source gives them in different places.",
  "data": [
    {"compound": "O=C(NCCCCCNc1ncnc2ccsc12)c1sc(C(F)(F)F)cc1O", "note": "[Compound 23]", "values": [
      {"measurement": "IC50", "setting": "[1]; [4]", "value": 11.5, "unit": "µM"}
    ]},
    {"compound": "Nc1ncnc(NCCc2cnc(NC(=O)Nc3cccc(C(F)(F)F)c3)s2)c1Br", "note": "[Compound 18]", "values": [
      {"measurement": "IC50", "setting": "[1]; [5]", "value": 0.005, "unit": "µM"},
      {"measurement": "EC50", "setting": "[2]", "value": 0.05, "unit": "µM"}
    ]},
    {"compound": "O=C(CS)Nc1ccc(Cl)cc1C(F)(F)F", "values": [
      {"measurement": "IC50", "setting": "[3]; [6]", "value": 1.62, "unit": "µM"}
    ]},
    {"compound": "NCCSSCCN", "note": "[Cystamine, reference compound]", "values": [
      {"measurement": "IC50", "setting": "[1]; [7]", "value": 55, "unit": "µM"},
      {"measurement": "IC50", "setting": "[1]; [8]", "value": "> 500", "unit": "µM"}
    ]},
    {"compound": "COc1cccc(C)c1NC(=O)NCCS", "values": [
      {"measurement": "IC50", "setting": "[3]; [6]", "value": 6.64, "unit": "µM"}
    ]},
    {"compound": "CCCCNC(=O)c1cccc(NC(=O)CSSCCN)c1", "note": "[Compound 20]", "values": [
      {"measurement": "IC50", "setting": "[1]; [4]", "value": "> 50", "unit": "µM"}
    ]},
    {"compound": "O=C(CS)N1CCCN(c2nc3ccc(Cl)cc3s2)CC1", "note": "[Compound 32]", "values": [
      {"measurement": "IC50", "setting": "[3]; [6]", "value": 2, "unit": "µM"}
    ]},
    {"compound": "COc1ccccc1Nc1ncc(Cl)c(NCCS)n1", "note": "[Compound 26]", "values": [
      {"measurement": "IC50", "setting": "[3]; read-out: IC50", "value": 0.5, "unit": "µM"}
    ]},
    {"compound": "CNc1ncc(Cl)c(Nc2cccc(CCl)c2)n1", "note": "[Compound 28]", "values": [
      {"measurement": "IC50", "setting": "[3]; read-out: IC50", "value": 3.75, "unit": "µM"}
    ]},
    {"compound": "O=C(Nc1cccc(C(F)(F)F)c1)Nc1ncc(CCSc2ncnc3ccsc23)s1", "note": "[Compound 6, reference compound]", "values": [
      {"measurement": "IC50", "setting": "[1]; thioether chemistry, product mixture and purified compound, read-out: IC50", "value": 0.005, "unit": "µM"}
    ]},
    {"compound": "SCCNc1ncnc2ccsc12", "note": "[Compound 4]", "values": [
      {"measurement": "IC50", "setting": "[1]; [7]", "value": 24, "unit": "µM"}
    ]},
    {"compound": "NCCSSCCNC(=O)Nc1cccc(C(F)(F)F)c1", "note": "[Compound 5]", "values": [
      {"measurement": "IC50", "setting": "[1]; [7]", "value": 30, "unit": "µM"}
    ]},
    {"compound": "CCCCNC(=O)c1cccc(NC(=O)CCCCCNc2ncnc3ccsc23)c1", "note": "[Compound 21]", "values": [
      {"measurement": "IC50", "setting": "[1]; [4]", "value": 4.1, "unit": "µM"}
    ]},
    {"compound": "CNc1ncc(Cl)c(CCl)n1", "note": "[Compound 29]", "values": [
      {"measurement": "IC50", "setting": "[3]; read-out: IC50", "value": 7.8, "unit": "µM"}
    ]},
    {"compound": "CC(C)S(=O)(=O)c1ccccc1Nc1nc(NCCS)ncc1Cl", "note": "[Compound 27]", "values": [
      {"measurement": "IC50", "setting": "[3]; read-out: IC50", "value": 0.25, "unit": "µM"}
    ]},
    {"compound": "Clc1ncnc2ccsc12", "note": "[Compound 7]", "values": [
      {"measurement": "IC50", "setting": "[1]; [8]", "value": 28, "unit": "µM"}
    ]},
    {"compound": "COc1ccc(C(=O)Nc2ccccc2)cc1NC(=O)CCSc1ncnc(N)c1Br", "note": "[Compound 15]", "values": [
      {"measurement": "IC50", "setting": "[1]; [5]", "value": 0.12, "unit": "µM"},
      {"measurement": "EC50", "setting": "[2]", "value": 1, "unit": "µM"}
    ]},
    {"compound": "COc1ccc(C(=O)Nc2ccccc2)cc1NC(=O)CCSCc1cnc2[nH]ccc2c1", "note": "[Compound 16]", "values": [
      {"measurement": "IC50", "setting": "[1]; [5]", "value": 0.15, "unit": "µM"}
    ]},
    {"compound": "NCCSSCCNC(=O)c1sc(C(F)(F)F)cc1O", "note": "[Compound 22]", "values": [
      {"measurement": "IC50", "setting": "[1]; [4]", "value": "> 50", "unit": "µM"}
    ]},
    {"compound": "O=C(NCCSSCCNc1ncnc2ccsc12)Nc1cccc(C(F)(F)F)c1", "note": "[Compound 3]", "values": [
      {"measurement": "IC50", "setting": "[1]; [7]", "value": 1.6, "unit": "µM"}
    ]},
    {"compound": "O=C(NCCSc1ncnc2[nH]ccc12)Nc1ccc(C(=O)O)c(O)c1", "note": "[Compound 17]", "values": [
      {"measurement": "IC50", "setting": "[1]; [5]", "value": 0.4, "unit": "µM"}
    ]},
    {"compound": "NCCSSCCc1cnc(NC(=O)Nc2cccc(C(F)(F)F)c2)s1", "note": "[Compound 8]", "values": [
      {"measurement": "IC50", "setting": "[1]; [8]", "value": "10 µM and 12.2 µM"}
    ]}
  ]
}
